Laboratory results as given in patent US8765698B2, “Methods and products for reawakening retrocyclins” (priority 2010, dated 2014).

Assays:
HIV-1 BaL = assay: Luciferase-based infection assay to determine anti-HIV-1 activity; type: cell-based; details: for HIV-1 infection of aminoglycoside-treated TZM-bl cells: HIV-1 BaL, 24 hr, compared to untreated cells
Experimental: Treatments were then removed and the infection was quantified by measuring luciferase using Bright-Glo reagents (Promega, Madison, Wis.) in an LMax luminometer (Molecular Devices, Sunnyvale, Calif.). Cytotoxicity and metabolic activity of cells were verified by a tetrazolium-based MTT assay (R& D systems, Minneapolis, Minn.) performed on identically treated cells.
For antibody-mediated neutralization experiments, TZM-bl cells (4000 cells/well; 96 well plate) were cultured in D10^− medium and treated with vehicle (PBS) or 10 μg/ml of tobramycin for 24 hr. The next day, cells were treated with either rabbit preimmune or anti-retrocyclin serum diluted 1:10 in D10^− medium containing tobramycin or RC-100 (2.5 μg/ml). Two hours later the cells were infected with HIV-1 BaL (p24 of 5 ng/ml) at 37° C. for 24 hr. Viral infection was quantified as described above.

[1] = system: premature termination codon of retrocyclin cDNA; assay: Aminoglycoside mediated read-through of termination codon, luciferase fusion construct in HOS-CD4-CCR5 cells; type: cell-based, human; details: 10 μg/ml, 24 hr, luciferase normalized to renilla
Experimental: Wildtype and mutant retrocyclin cDNAs were subcloned into phCMV-luc-FSR vector to create unrescued RC-101 and rescued RC-101 C-terminal luciferase fusion constructs, and verified by sequencing. HOS-CD4-CCR5 cells were cultured in antibiotic free growth medium (D10^−) and co-transfected with 0.5 μg of unrescued or rescued (positive control) RC-101 plasmids along with 0.1 μg of phRL-CMV vector (transfection control containing renilla luciferase gene) using Effectene transfection reagent (Qiagen, Valencia, Calif.). The next day cells were treated for 24 hr with the appropriate aminoglycoside (40 μg/ml amikacin or 5 μg/ml gentamicin or 10 μg/ml tobramycin) or D10^− for control cells. Read-through was determined by measuring luciferase and renilla levels using a dual luciferase assay (Promega Corp., Madison, Wis.).

[2] = system: Cervicovaginal tissues (EpiVaginal); assay: MTT assay on organotypic cervicovaginal tissue; type: cell-based, human; details: one tissue, data not shown
Experimental: (§1) Cervicovaginal tissues were treated topically with 100 μl of PBS (control; n=4) or with 10 μg/ml of tobramycin (n=8) for 24 hr. Viability was assessed on control and tobramycin-treated tissue (n=1) using MTT assay kit (MatTek Corp., Ashland, Mass.). Cytotoxicity was measured by quantifying lactate dehydrogenase (LDH) activity in the underlying medium collected 24 hr after treatment with PBS or tobramycin by using CytoTox96 non-radioactive cytotoxicity assay kit (Promega Corp., Madison, Wis.).

retrocyclin polypeptides = assay: Retrocyclin expression in cervicovaginal tissues, RP-HPLC, immuno-dotblot and immunostaining; type: cell-based, human
[3] = system: Cervicovaginal tissues (EpiVaginal); assay: LDH cytotoxicity assay on organotypic cervicovaginal tissue; type: cell-based, human; details: 10 μg/ml, 24 hr
Experimental: as §1

retrocyclin peptides = assay: Immunostaining of aminoglycoside-treated TZM-bl cells with anti-retrocyclin antibody; type: cell-based; details: 10 μg/ml, 24 hr
Excerpt: The coverslips were then processed for immunofluorescence staining with anti-retrocyclin (rabbit anti-RC-101 antibody) or pre-immune serum as described above.

Compound | HIV-1 infection of aminoglycoside-treated TZM-bl cells (HIV-1 BaL) | increase in read-through [1] [fold] | metabolic activity of tissue (MTT assay) [2] | infection, preimmune serum compared to anti-retrocyclin antibodies (HIV-1 BaL; TZM-bl cells, tobramycin 10 μg/ml for 24 hr, then serum, HIV-1) | amount of retrocyclin polypeptides expressed in treated cervicovaginal tissues (retrocyclin polypeptides; 10 μg/ml tobramycin, estimated by densitometry of immuno-dotblot) | anti-retrocyclin immunohistochemical staining of cervicovaginal tissue (retrocyclin polypeptides; applied apically, 24 hr) | tissue cytotoxicity (LDH activity in underlying medium) [3] | anti-retrocyclin immunostaining of TZM-bl cells (retrocyclin peptides)
gentamicin | inhibited HIV-1 infection | – | – | – | – | – | – | –
NC[C@H]1O[C@H](O[C@H]2[C@H](O)[C@@H](O[C@H]3O[C@H](CO)[C@@H](O)[C@H](N)[C@H]3O)[C@H](N)C[C@@H]2N)[C@H](N)C[C@@H]1O [tobramycin] | inhibited HIV-1 infection | 26 | did not affect the metabolic activity adversely | modest yet significant reduction in infection | approximately 1.6 μg/tissue | brightly stained cells | not cytotoxic | brightly stained cells
